Patent publication US9649314B2, “Pyrimido[4,5-b]quinoline-4,5(3H,10H)-diones” (NOVARTIS AG, priority 2012, dated 2017)
Like-named read-outs stand apart in the source and are kept apart here.

Tested on: CFTR-Y122X
Experiment: CFTR-Y122X assay (dual reporter isogenic Hek293 cell lines, Renilla luminescence readthrough)
Format: cell-based
Settings: Homo sapiens; for Emax at 100 µM: measured at 100 μM compound concentration (footnote d)
Excerpt: Activity of compounds of the present invention was examined in recombinant, dual reporter isogenic Hek293 cell lines (“CFTR-Y122X assay”). The engineered reporter constructs contained the 18 bp sequence stretch corresponding to a common Y122X PTC mutation in CFTR class I mutant patients (see Sermet-Gaudelus, BMC Medicine, 2007, 5(5)). Instead of a tyrosine (Y) in position 122 of the CFTR protein a TGA stop codon interrupts the open reading frame (Y122X) of the corresponding mRNA. This TGA stop codon triplet (followed by the pyrimidine base cytosine) is permissive to aminoglycoside mediated translational readthrough which served as positive control for high throughput screening. A corresponding TAA stop codon variant and a wildtype non mutated construct was used for confirmation and counter screening. The CFTR sequence was sandwiched between an eGFP reporter, and a triple myc tag sequence fused to a full length Renilla reporter. All sequences, including an intron containing one positioned pre-eGFP (b-globin intron) were cloned in frame. The corresponding expression constructs were stably expressed in the isogenic HEK-R4 cell host (Invitrogen Incorp.) and selected by blasticidin resistance. The isogenic integration of the construct minimizes gene dose effects and improves assay reproducibility. Stably integrated single cell derived clones were selected and characterized for aminoglycoside mediated readthrough. […] Readthrough of Y122X accumulates an intracellular localized fusion protein approximately 65.5 kDa in size as controlled by western blot analysis and immunofluorescence using an anti-renilla antibody. The eGFP reporter pre-PTC mutation serves as visual control for genetic stability of the screening clones and minimizes protein degradation of small fusion protein amounts. In the assay, compound concentration was 10 μM. In miniaturized 1536 well format 2000 cells were dispensed in 4 μl/well and incubated for 24 h at 37° C., 5% CO2. 40 nl compounds were placed on the cells with control wells containing 1 ul Paramomycin and 14.4 mM final concentration. Compounds were incubated for 24 h. Renilla Glo substrate (2.5 ul) was added and plates were centrifuged and processed for luminescence measurement using various readers. Activity calculation was done using the equation: A1 (%)=100*(S−NC)/(AC−NC) where AC, NC and S correspond to active controls (injection of Stimulation buffer=100% stimulation), neutral controls (buffer injection which Iloprost EC10) and screening samples (S). NC corresponds to 0% activity whereas AC is 100% activity (14 mM paromomycin). False positive artefacts were removed in confirmation and validation screening using the same assay format followed by counterscreening using the respective wildtype construct (w/o PTC mutation) cell model. Compounds were tested up to 100 μM compound concentration.

[1] = HEK293, nonsense mutation suppression, 100% = 14 mM paromomycin, 24 h incubation, tested up to 100 μM, read-out: Amax [%]
[2] = HEK293, nonsense mutation suppression, 24 h incubation
[3] = HEK293, at the above dose ranges (up to 100 μM), read-out: suppression, % of paromomycin reference activity
[4] = HEK293, read-out: Amax [%]: % nonsense mutation suppression relative to paromomycin reference activity

SMILES | Emax [1] | AC50 [2] | further results
Cn1c2ccccc2c(=O)c2c(=O)n(C3CCCCC3)c(-c3ccc([N+](=O)[O-])cc3)nc21 [Example 2.45, 3-cyclohexyl-10-methyl-2-(4-nitrophenyl)pyrimido[4,5-b]quinoline-4,5(3H,10H)-dione] | 14% | 11 µM | –
CCc1nc2c(c(=O)c3ccccc3n2C)c(=O)n1-c1cc(C)cc(C)c1 [Example 1.33, 3-(3,5-dimethylphenyl)-2-ethyl-10-methylpyrimido[4,5-b]quinoline-4,5(3H,10H)-dione] | 16% | 0.7 µM | –
O=c1c2ccccc2n(CCO)c2nc(C3CCC3)n(-c3ccccc3)c(=O)c12 [Example 1.39, 2-cyclobutyl-10-(2-hydroxyethyl)-3-phenylpyrimido[4,5-b]quinoline-4,5(3H,10H)-dione] | 250% | 3.2 µM | –
Cn1c2ccccc2c(=O)c2c(=O)n(C3CCCC3)c(-c3ccco3)nc21 [Example 2.49, 3-cyclopentyl-2-(furan-2-yl)-10-methylpyrimido[4,5-b]quinoline-4,5(3H,10H)-dione] | 7% | 1.8 µM | –
CC(C)c1nc2c(c(=O)c3ccccc3n2C)c(=O)n1C1CCOC1 (centres unmarked) [2-isopropyl-10-methyl-3-(tetrahydrofuran-3-yl)pyrimido[4,5-b]quinoline-4,5(3H,10H)-dione] | – | – | Emax [3]: < 5%
C=CCn1c2ccccc2c(=O)c2c(=O)n(-c3ccccc3)c(C3CCC3)nc21 [Example 1.4, 10-allyl-2-cyclobutyl-3-phenylpyrimido[4,5-b]quinoline-4,5(3H,10H)-dione] | 279% | 4 µM | –
COc1ccc(-c2nc3c(c(=O)c4ccccc4n3C)c(=O)n2C2CCCCCC2)cc1 [Example 2.47, 3-cycloheptyl-2-(4-methoxyphenyl)-10-methylpyrimido[4,5-b]quinoline-4,5(3H,10H)-dione] | 10% | 3.1 µM | –
Cn1c2ccccc2c(=O)c2c(=O)n(C3CCCC3)c(C3CCCCC3)nc21 [Example 2.28, 2-cyclohexyl-3-cyclopentyl-10-methylpyrimido[4,5-b]quinoline-4,5(3H,10H)-dione] | 89% | 15.1 µM | –
Cn1c2ccccc2c(=O)c2c(=O)n(C3CCCCC3)c(-c3ccccc3Cl)nc21 [Example 2.38, 2-(2-chlorophenyl)-3-cyclohexyl-10-methylpyrimido[4,5-b]quinoline-4,5(3H,10H)-dione] | 21% | 10 µM | –
Cn1c2ccccc2c(=O)c2c(=O)n(C3CCCCCC3)c(-c3ccccc3)nc21 [Example 2.26, 3-cycloheptyl-10-methyl-2-phenylpyrimido[4,5-b]quinoline-4,5(3H,10H)-dione] | 97% | 11.1 µM | –
CC(C)c1nc2c(c(=O)c3cc(Br)ccc3n2C)c(=O)n1C1CCCC1 [Example 2.12, 7-bromo-3-cyclopentyl-2-isopropyl-10-methylpyrimido[4,5-b]quinoline-4,5(3H,10H)-dione] | – | – | Emax at 25 µM (HEK293, measured at 25 μM compound concentration (footnote a), read-out: Amax [%]: % nonsense mutation suppression relative to paromomycin reference activity): 23%
CCn1c2ccccc2c(=O)c2c(=O)n(C3CCCC3)c(C(C)C)nc21 [Example 2.3, 3-cyclopentyl-10-ethyl-2-isopropylpyrimido[4,5-b]quinoline-4,5(3H,10H)-dione] | 101% | 21.6 µM | –
Cn1c2ccccc2c(=O)c2c(=O)n(C3CCCCC3)c(-c3ccc(C(C)(C)C)cc3)nc21 [2-(4-(tert-butyl)phenyl)-3-cyclohexyl-10-methylpyrimido[4,5-b]quinoline-4,5(3H,10H)-dione] | – | – | Emax [3]: < 5%
Cn1c2ccccc2c(=O)c2c(=O)n(-c3c(Cl)cccc3Cl)c(C3CCC3)nc21 [Example 1.46, 2-cyclobutyl-3-(2,6-dichlorophenyl)-10-methylpyrimido[4,5-b]quinoline-4,5(3H,10H)-dione] | 25% | – | –
CCCCCc1nc2c(c(=O)c3ccccc3n2C)c(=O)n1C1CCCCCC1 [Example 2.25, 3-cycloheptyl-10-methyl-2-pentylpyrimido[4,5-b]quinoline-4,5(3H,10H)-dione] | 149% | 6.4 µM | –
Cn1c2ccccc2c(=O)c2c(=O)n(C3CCCCC3)c(-c3cccc([N+](=O)[O-])c3)nc21 [Example 2.19, 3-cyclohexyl-10-methyl-2-(3-nitrophenyl)pyrimido[4,5-b]quinoline-4,5(3H,10H)-dione] | 248% | 11.6 µM | –

SMILES | Emax [1] | AC50 [2] | further results
CCCCCc1nc2c(c(=O)c3ccccc3n2C)c(=O)n1-c1ccccc1 [Example 1.29, 10-methyl-2-pentyl-3-phenylpyrimido[4,5-b]quinoline-4,5(3H,10H)-dione] | 336% | 7.1 µM | –
CC(C)c1nc2c(c(=O)c3ccccc3n2C)c(=O)n1C1CCCCC1 [Example 2.29, 3-cyclohexyl-2-isopropyl-10-methylpyrimido[4,5-b]quinoline-4,5(3H,10H)-dione] | 73% | 14.3 µM | –
CC(C)c1nc2c(c(=O)c3ccccc3n2C)c(=O)n1-c1cccc(Cl)c1 [Example 1.21, 3-(3-chlorophenyl)-2-isopropyl-10-methylpyrimido[4,5-b]quinoline-4,5(3H,10H)-dione] | 167% | 10.2 µM | –
Cn1c2ccccc2c(=O)c2c(=O)n(C3CCCCCC3)c(C3CCCCC3)nc21 [3-cycloheptyl-2-cyclohexyl-10-methylpyrimido[4,5-b]quinoline-4,5(3H,10H)-dione] | – | – | Emax [3]: < 5%
Cc1ccccc1-c1nc2c(c(=O)c3ccccc3n2C)c(=O)n1C1CCCC1 [Example 2.34, 3-cyclopentyl-10-methyl-2-(o-tolyl)pyrimido[4,5-b]quinoline-4,5(3H,10H)-dione] | 33% | 8.4 µM | –
Cn1c2ccccc2c(=O)c2c(=O)n(-c3ccccc3)c(C3CCC3)nc21 [Example 1.1, 2-cyclobutyl-10-methyl-3-phenylpyrimido[4,5-b]quinoline-4,5(3H,10H)-dione] | – | 1.3 µM | Emax (HEK293, 24 h, read-out: Amax [%]): 258%
CCCc1nc2c(c(=O)c3ccccc3n2C)c(=O)n1-c1cc(C)cc(C)c1 [Example 1.36, 3-(3,5-dimethylphenyl)-10-methyl-2-propylpyrimido[4,5-b]quinoline-4,5(3H,10H)-dione] | 9% | 1 µM | –
CC(C)Cc1nc2c(c(=O)c3ccccc3n2C)c(=O)n1C1CCCC1 [Example 2.5, 3-cyclopentyl-2-isobutyl-10-methylpyrimido[4,5-b]quinoline-4,5(3H,10H)-dione] | 243% | 8.1 µM | –
CCCCCCc1nc2c(c(=O)c3ccccc3n2C)c(=O)n1-c1ccccc1 [Example 1.47, 2-hexyl-10-methyl-3-phenylpyrimido[4,5-b]quinoline-4,5(3H,10H)-dione] | 210% | 11.3 µM | –
Cn1c2ccccc2c(=O)c2c(=O)n(C3CCCCCC3)c(-c3ccc(C(C)(C)C)cc3)nc21 [2-(4-(tert-butyl)phenyl)-3-cycloheptyl-10-methylpyrimido[4,5-b]quinoline-4,5(3H,10H)-dione] | – | – | Emax [3]: < 5%
Cc1ccccc1-c1nc2c(c(=O)c3ccccc3n2C)c(=O)n1C1CCCCC1 [Example 2.37, 3-cyclohexyl-10-methyl-2-(o-tolyl)pyrimido[4,5-b]quinoline-4,5(3H,10H)-dione] | – | – | Emax at 100 µM [4]: 28%
CCCCCc1nc2c(c(=O)c3ccccc3n2C)c(=O)n1-c1cc(C)cc(C)c1 [Example 1.34, 3-(3,5-dimethylphenyl)-10-methyl-2-pentylpyrimido[4,5-b]quinoline-4,5(3H,10H)-dione] | 16% | 3.2 µM | –
Cn1c2ccccc2c(=O)c2c(=O)n(C3CCCC3)c(-c3ccccc3F)nc21 [Example 2.32, 3-cyclopentyl-2-(2-fluorophenyl)-10-methylpyrimido[4,5-b]quinoline-4,5(3H,10H)-dione] | – | – | Emax at 100 µM [4]: 43%
COc1cccc(-n2c(C(C)C)nc3c(c(=O)c4ccccc4n3C)c2=O)c1 [Example 1.22, 2-isopropyl-3-(3-methoxyphenyl)-10-methylpyrimido[4,5-b]quinoline-4,5(3H,10H)-dione] | 23% | 1.9 µM | –
Cn1c2ccccc2c(=O)c2c(=O)n(C3CCCCC3)c(-c3ccc(Cl)cc3Cl)nc21 [3-cyclohexyl-2-(2,4-dichlorophenyl)-10-methylpyrimido[4,5-b]quinoline-4,5(3H,10H)-dione] | – | – | Emax [3]: < 5%
